In brackets after ≈: the same amount, converted by molar mass. Read-outs that look alike come from different tables or passages of the source.
Key:
[1] = tested on: Escherichia coli strain ECM6704 (vector pUCP24 alone); assay: microbe, parasite or virus in culture; assay type: cell-based; details: E. coli ECM6704, vector alone, cation-adjusted Mueller-Hinton broth, 18 h, 35° C.
Protocol: (§1) MICs were recorded after an eighteen-hour growth at 35° C. […] In Table 1, all genes were cloned into vector pUCP24 and introduced into Escherichia coli strain.

[2] = tested on: Escherichia coli strain ECM6701 expressing KPC-2 β-lactamase; assay: microbe, parasite or virus in culture; details: 18 h
Protocol: as §1

[3] = tested on: Escherichia coli strain ECM6702 expressing KPC-3 β-lactamase; assay: microbe, parasite or virus in culture; details: 18 h
Protocol: as §1

[4] = tested on: Enterobacter cloacae ECL1026 (KPC-2, TEM-1); assay: microbe, parasite or virus in culture; assay type: cell-based; details: 18 h
[5] = tested on: Enterobacter cloacae ECL1036 (KPC-3, TEM-1); assay: microbe, parasite or virus in culture; assay type: cell-based; details: 18 h
[6] = tested on: Enterobacter cloacae ECL1055 (KPC-3, TEM); assay: MIC, CLSI broth microdilution, clinical strain ECL1055; assay type: cell-based; details: clinical strain ECL1055, Enterobacter loacae, 18 h, 35° C.
[7] = tested on: Citrobacter freundii CF1012 (KPC-2); details: clinical strain CF1012, Citrobacter freundii, 18 h, 35° C.
[8] = tested on: Escherichia coli EC1007 (KPC-3); details: clinical strain EC1007, Escherichia coli, 18 h, 35° C.
[9] = tested on: Klebsiella pneumoniae KP1008 (KPC-2); details: clinical strain KP1008, Klebsiella pneumoniae, 18 h, 35° C.
[10] = biological target: purified KPC-2 β-lactamase (Klebsiella pneumoniae, UniProt Q9F663); assay: Kinetics of monobactam hydrolysis by purified KPC-2
Protocol: The optical density was checked every 2 minutes for 2 hours. […] Vmax and Km values were calculated using “Prizm” software (“GraphPad”). Kcat values were calculated using the equation kcat=Vmax/[enzyme concentration].

[11] = tested on: Citrobacter freundii CF1012 (KPC-2); assay: microbe, parasite or virus in culture; details: 18 h
[12] = tested on: Escherichia coli EC1007 (KPC-3); assay: microbe, parasite or virus in culture; details: 18 h
[13] = tested on: Klebsiella pneumoniae KP1008 (KPC-2); assay: microbe, parasite or virus in culture; details: 18 h
[14] = Escherichia coli, read-out: MIC

Sequence of purified KPC-2 β-lactamase (Q9F663 25-293 limits assumed): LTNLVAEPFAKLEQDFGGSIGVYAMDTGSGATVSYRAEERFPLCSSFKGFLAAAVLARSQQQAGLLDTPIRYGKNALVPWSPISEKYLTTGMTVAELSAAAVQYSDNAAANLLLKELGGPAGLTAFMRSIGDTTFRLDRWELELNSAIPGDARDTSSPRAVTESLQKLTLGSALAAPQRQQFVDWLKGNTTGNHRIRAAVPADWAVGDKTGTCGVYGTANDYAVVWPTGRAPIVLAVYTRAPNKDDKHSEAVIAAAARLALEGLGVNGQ

| Compound | MIC [1] | MIC ([2]; E. coli ECM6701, KPC-2, cation-adjusted Mueller-Hinton broth, 35° C.) | MIC ([3]; E. coli ECM6702, KPC-3, cation-adjusted Mueller-Hinton broth, 35° C.) | MIC ([4]; clinical strain ECL1026, Enterobacter cloacae, KPC-2, TEM-1, 35° C.) | MIC ([5]; clinical strain ECL1036, Enterobacter Vcloacae, KPC-3, TEM-1, 35° C.) | MIC [6] | MIC [7] | MIC [8] | MIC [9] | Km ([10]; 50 mM sodium phosphate pH 7.0, 0.1 mg/ml BSA, 37° C., OD 318 nm) | kcat ([10]; kcat=Vmax/[enzyme concentration]) | MIC [1, 14] | MIC ([2]; Escherichia coli) | MIC ([3]; Escherichia coli) | MIC ([4]; Enterobacter cloacae) | MIC ([5]; Enterobacter cloacae) | MIC ([6]; Enterobacter cloacae, read-out: MIC) | MIC [11] | MIC [12] | MIC [13] |
| --- | --- | --- | --- | --- | --- | --- | --- | --- | --- | --- | --- | --- | --- | --- | --- | --- | --- | --- | --- | --- |
| CC1(C)[C@H](NC(=O)/C(=N\OCC(=O)O)c2csc(N)n2)C(=O)N1OS(=O)(=O)O [Tigemonam, tigemonam] | <=0.125 μg/ml | 0.25 µg/mL (≈ 0.572 µM) | 0.5 µg/mL (≈ 1.14 µM) | 4 µg/mL (≈ 9.14 µM) | 8 µg/mL (≈ 18.3 µM) | 8 µg/mL (≈ 18.3 µM) | 8 µg/mL (≈ 18.3 µM) | 1 µg/mL (≈ 2.29 µM) | 1 µg/mL (≈ 2.29 µM) | 678 µM | 0.233 s⁻¹ |  |  |  |  |  |  |  |  |  |
| NC(=O)OC[C@@H]1[C@H](NC(=O)/C(=N\OCC(=O)O)c2csc(N)n2)C(=O)N1S(=O)(=O)O [Carumonam, carumonam] |  |  |  |  |  |  |  |  |  |  |  | ≤ 0.125 µg/mL | 0.25 µg/mL (≈ 0.536 µM) | 0.25 µg/mL (≈ 0.536 µM) | 2 µg/mL (≈ 4.29 µM) | 2 µg/mL (≈ 4.29 µM) | 4 µg/mL (≈ 8.58 µM) | 2 µg/mL (≈ 4.29 µM) | 1 µg/mL (≈ 2.14 µM) | 0.5 µg/mL (≈ 1.07 µM) |
| C[C@H]1[C@H](NC(=O)/C(=N\OC(C)(C)C(=O)O)c2csc(N)n2)C(=O)N1S(=O)(=O)O [Aztreonam, aztreonam] |  |  |  |  |  |  |  |  |  |  |  | ≤ 0.125 µg/mL |  |  |  |  |  |  |  |  |

Reference: patent US20140128364A1, “THERAPEUTIC USES OF TIGEMONAM AND CARUMONAM” (priority 2012, published 2014)
